According to patent US20140073651A1, “BENZAMIDE DERIVATIVES AS P2X7 RECEPTOR ANTAGONISTS” (Actelion Pharmaceuticals Ltd., priority 2011, published 2014):

molecular target: T1, human recombinant P2X7 receptor (Homo sapiens, UniProt Q99572); assay: YO-PRO assay (YO-PRO-1 uptake) in HEK cells stably expressing P2X7; format: cell-based; conditions: HEK-293 cells expressing human recombinant P2X7 receptor; ATP 250 μM, 90 minutes; YO-PRO-1 fluorescence (FLIPR tetra); read-out: IC50 (antagonistic activity with respect to the P2X7 receptor)
T1 construct: expressed in transfected cells
T1 sequence (Q99572 1-595): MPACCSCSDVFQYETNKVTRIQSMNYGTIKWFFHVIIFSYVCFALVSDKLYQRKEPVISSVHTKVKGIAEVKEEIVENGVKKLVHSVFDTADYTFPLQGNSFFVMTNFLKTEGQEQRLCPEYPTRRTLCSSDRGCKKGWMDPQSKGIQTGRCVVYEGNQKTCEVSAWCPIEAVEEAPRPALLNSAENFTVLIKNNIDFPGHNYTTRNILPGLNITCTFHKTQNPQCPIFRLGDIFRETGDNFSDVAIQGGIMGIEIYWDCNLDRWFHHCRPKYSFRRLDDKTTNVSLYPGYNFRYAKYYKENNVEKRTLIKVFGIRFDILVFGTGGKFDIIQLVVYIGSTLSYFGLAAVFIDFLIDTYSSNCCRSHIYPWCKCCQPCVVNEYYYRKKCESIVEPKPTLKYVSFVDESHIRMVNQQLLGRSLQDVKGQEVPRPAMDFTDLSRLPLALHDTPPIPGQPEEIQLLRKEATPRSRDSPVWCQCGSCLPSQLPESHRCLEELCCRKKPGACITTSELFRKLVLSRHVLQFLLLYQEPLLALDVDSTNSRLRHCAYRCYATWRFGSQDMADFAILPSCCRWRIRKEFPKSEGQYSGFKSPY
Procedure, shortened: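 Antagonist serially diluted (duplicates) on P2X7-expressing HEK cells in buffer with 0.5 μM YO-PRO-1; dye uptake followed on FLIPR Tetra over four time points. IC50 from maximum fluorescence intensity versus compound concentration.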

In order of falling IC50:
1. COc1nccc(S(=O)(=O)c2ccc(Cl)c(C(=O)NCC3(O)CCCCC3)c2)n1 [Example 141, 2-Chloro-N-(1-hydroxy-cyclohexylmethyl)-5-(2-methoxy-pyrimidine-4-sulfonyl)-benzamide]  3890 nM
2. O=C(NCC1(O)CCCCC1)c1cc(Cn2ccc(=O)[nH]c2=O)ccc1Cl [Example 144, 2-Chloro-5-(2,4-dioxo-3,4-dihydro-2H-pyrimidin-1-ylmethyl)-N-(1-hydroxy-cyclohexylmethyl)-benzamide]  1390 nM
3. O=C(NCC1(O)CCCCC1)c1cc(Oc2ccnc(=O)[nH]2)ccc1Cl [Example 119, 2-Chloro-N-(1-hydroxy-cyclohexylmethyl)-5-(2-oxo-2,3-dihydro-pyrimidin-4-yloxy)-benzamide]  796 nM
4. Cc1ccc(N(C)c2ccnc(Cl)n2)cc1C(=O)NCC1(O)CCCCC1 [Example 153, 5-[(2-Chloro-pyrimidin-4-yl)-methyl-amino]-N-(1-hydroxy-cyclohexylmethyl)-2-methyl-benzamide]  702 nM
5. COc1nccc(N(C)c2ccc(C)c(C(=O)NCC3(O)CCCCC3)c2)n1 [Example 154, N-(1-Hydroxy-cyclohexylmethyl)-5-[(2-methoxy-pyrimidin-4-yl)-methyl-amino]-2-methyl-benzamide]  629 nM
6. CN(C)c1cncc(Oc2ccc(Cl)c(C(=O)NCC3(O)CCCCC3)c2)n1 [Example 125, 2-Chloro-5-(6-dimethylamino-pyrazin-2-yloxy)-N-(1-hydroxy-cyclohexylmethyl)-benzamide]  504 nM
7. O=C(NCC1(O)CCCCC1)c1cc(Oc2cncc(=O)[nH]2)ccc1Cl [Example 126, 2-Chloro-N-(1-hydroxy-cyclohexylmethyl)-5-(6-oxo-1,6-dihydro-pyrazin-2-yloxy)-benzamide]  461 nM
8. CN(C)c1nccc(Oc2ccc(Cl)c(C(=O)NCC3(O)CCCCC3)c2)n1 [Example 117, 2-Chloro-5-(2-dimethylamino-pyrimidin-4-yloxy)-N-(1-hydroxy-cyclohexylmethyl)-benzamide]  427 nM
9. CSc1nccc(Cc2ccc(Cl)c(C(=O)NCC3(O)CCCCC3)c2)n1 [Example 146, 2-Chloro-N-(1-hydroxy-cyclohexylmethyl)-5-(2-methylsulfanyl-pyrimidin-4-ylmethyl)-benzamide]  400 nM
10. O=C(NCC1(O)CCCCC1)c1cc(Cn2cccnc2=O)ccc1Cl [Example 143, 2-Chloro-N-(1-hydroxy-cyclohexylmethyl)-5-(2-oxo-2H-pyrimidin-1-ylmethyl)-benzamide]  377 nM
11. COc1nccc(Cc2ccc(Cl)c(C(=O)NCC3(O)CCCCC3)c2)n1 [Example 148, 2-Chloro-N-(1-hydroxy-cyclohexylmethyl)-5-(2-methoxy-pyrimidin-4-ylmethyl)-benzamide]  343 nM
12. O=C(NCC1(O)CCCCC1)c1cc(Sc2ccnc(Cl)n2)ccc1Cl [Example 135, 2-Chloro-5-(2-chloro-pyrimidin-4-ylsulfanyl)-N-(1-hydroxy-cyclohexylmethyl)-benzamide]  266 nM
13. COc1cnnc(Oc2ccc(Cl)c(C(=O)NCC3(O)CCCCC3)c2)c1 [Example 131, 2-Chloro-N-(1-hydroxy-cyclohexylmethyl)-5-(5-methoxy-pyridazin-3-yloxy)-benzamide]  206 nM
14. O=C(NCC1(O)CCCCC1)c1cc(Oc2ccnc(Cl)n2)ccc1Cl [Example 115, 2-Chloro-5-(2-chloro-pyrimidin-4-yloxy)-N-(1-hydroxy-cyclohexylmethyl)-benzamide]  191 nM
15. CNc1nccc(Oc2ccc(Cl)c(C(=O)NCC3(O)CCCCC3)c2)n1 [Example 116, 2-Chloro-N-(1-hydroxy-cyclohexylmethyl)-5-(2-methylamino-pyrimidin-4-yloxy)-benzamide]  172 nM
16. CNc1cncc(Oc2ccc(Cl)c(C(=O)NCC3(O)CCCCC3)c2)n1 [Example 124, 2-Chloro-N-(1-hydroxy-cyclohexylmethyl)-5-(6-methylamino-pyrazin-2-yloxy)-benzamide]  163 nM
17. COc1cncc(Oc2ccc(Cl)c(C(=O)NCC3(O)CCCCC3)c2)n1 [Example 123, 2-Chloro-N-(1-hydroxy-cyclohexylmethyl)-5-(6-methoxy-pyrazin-2-yloxy)-benzamide]  123 nM
18. O=C(NCC1(O)CCCCC1)c1cc(Cc2cc[nH]c(=O)n2)ccc1Cl [Example 147, 2-Chloro-N-(1-hydroxy-cyclohexylmethyl)-5-(2-oxo-1,2-dihydro-pyrimidin-4-ylmethyl)-benzamide]  123 nM
19. COc1nccc(Oc2ccc(Cl)c(C(=O)NCC3(O)CCCCC3)c2)n1 [Example 120, 2-Chloro-N-(1-hydroxy-cyclohexylmethyl)-5-(2-methoxy-pyrimidin-4-yloxy)-benzamide]  111 nM
20. O=C(NCC1(O)CCCCC1)c1cc(S(=O)(=O)c2ccccn2)ccc1Cl [Example 134, 2-Chloro-N-(1-hydroxy-cyclohexylmethyl)-5-(pyridine-2-sulfonyl)-benzamide]  105 nM
21. O=C(NCC1(O)CCCCC1)c1cc(Oc2cncc(Cl)n2)ccc1Cl [Example 122, 2-Chloro-5-(6-chloro-pyrazin-2-yloxy)-N-(1-hydroxy-cyclohexylmethyl)-benzamide]  101 nM
22. O=C(NCC1(O)CCCCC1)c1cc(Oc2ccncn2)ccc1Cl [Example 114, 2-Chloro-N-(1-hydroxy-cyclohexylmethyl)-5-(pyrimidin-4-yloxy)-benzamide]  100 nM
23. O=C(NCC1(O)CCCCC1)c1cc(Oc2cnccn2)ccc1Cl [Example 121, 2-Chloro-N-(1-hydroxy-cyclohexylmethyl)-5-(pyrazin-2-yloxy)-benzamide]  93 nM
24. O=C(NCC1(O)CCCCC1)c1cc(Oc2ccc(=O)[nH]n2)ccc1Cl [Example 129, 2-Chloro-N-(1-hydroxy-cyclohexylmethyl)-5-(6-oxo-1,6-dihydro-pyridazin-3-yloxy)-benzamide]  80 nM
25. O=C(NCC1(O)CCCCC1)c1cc(Cn2ccccc2=O)ccc1Cl [Example 142, 2-Chloro-N-(1-hydroxy-cyclohexylmethyl)-5-(2-oxo-2H-pyridin-1-ylmethyl)-benzamide]  80 nM
26. O=C(c1ccc(Cl)c(C(=O)NCC2(O)CCCCC2)c1)c1cc[nH]c(=O)n1 [Example 150, 2-Chloro-N-(1-hydroxy-cyclohexylmethyl)-5-(2-oxo-1,2-dihydro-pyrimidine-4-carbonyl)-benzamide]  77 nM
27. COc1nccc(Sc2ccc(Cl)c(C(=O)NCC3(O)CCCCC3)c2)n1 [Example 139, 2-Chloro-N-(1-hydroxy-cyclohexylmethyl)-5-(2-methoxy-pyrimidin-4-ylsulfanyl)-benzamide]  74 nM
28. O=C(NCC1(O)CCCCC1)c1cc(Oc2cccnn2)ccc1Cl [Example 130, 2-Chloro-N-(1-hydroxy-cyclohexylmethyl)-5-(pyridazin-3-yloxy)-benzamide]  67 nM
29. O=C(NCC1(O)CCCCC1)c1cc(Oc2ccc(Cl)nn2)ccc1Cl [Example 127, 2-Chloro-5-(6-chloro-pyridazin-3-yloxy)-N-(1-hydroxy-cyclohexylmethyl)-benzamide]  58 nM
30. O=C(NCC1(O)CCCCC1)c1cc(Sc2ccccn2)ccc1Cl [Example 132, 2-Chloro-N-(1-hydroxy-cyclohexylmethyl)-5-(pyridin-2-ylsulfanyl)-benzamide]  46 nM
31. O=C(NCC1(O)CCC(F)(F)CC1)c1cc(Cc2cc[nH]c(=O)n2)ccc1Cl [Example 149, 2-Chloro-N-(4,4-difluoro-1-hydroxy-cyclohexylmethyl)-5-(2-oxo-1,2-dihydro-pyrimidin-4-ylmethyl)-benzamide]  33 nM
32. O=C(NCC1(O)CCCCC1)c1cc(C(F)(F)c2cc[nH]c(=O)n2)ccc1Cl [Example 151, 2-Chloro-5-[difluoro-(2-oxo-1,2-dihydro-pyrimidin-4-yl)-methyl]-N-(1-hydroxy-cyclohexylmethyl)-benzamide]  31 nM
33. COc1ccc(Oc2ccc(Cl)c(C(=O)NCC3(O)CCCCC3)c2)nn1 [Example 128, 2-Chloro-N-(1-hydroxy-cyclohexylmethyl)-5-(6-methoxy-pyridazin-3-yloxy)-benzamide]  30 nM
34. O=C(NCC1(O)CCCCC1)c1cc(Cc2ccccn2)ccc1Cl [Example 145, 2-Chloro-N-(1-hydroxy-cyclohexylmethyl)-5-pyridin-2-ylmethyl-benzamide]  21 nM
35. O=C(NCC1(O)CCC(F)(F)CC1)c1cc(Oc2cc[nH]c(=O)n2)ccc1Cl [Example 118, 2-Chloro-N-(4,4-difluoro-1-hydroxy-cyclohexylmethyl)-5-(2-oxo-1,2-dihydro-pyrimidin-4-yloxy)-benzamide]  14 nM
36. O=C(NCC1(O)CCC(F)(F)CC1)c1cc(Sc2cc[nH]c(=O)n2)ccc1Cl [Example 138, 2-Chloro-N-(4,4-difluoro-1-hydroxy-cyclohexylmethyl)-5-(2-oxo-1,2-dihydro-pyrimidin-4-ylsulfanyl)-benzamide]  10 nM
37. O=C(NCC1(O)CCCCC1)c1cc(Sc2cc[nH]c(=O)n2)ccc1Cl [Example 137, 2-Chloro-N-(1-hydroxy-cyclohexylmethyl)-5-(2-oxo-1,2-dihydro-pyrimidin-4-ylsulfanyl)-benzamide]  8.1 nM
